“And” between values parts separate entries of the source, which are not always exact repeats. Equal values may be shown once. Read-outs that look alike come from different tables or passages of the source.
Experiments:
[1] = test system: PC-3; test: Cell growth inhibition (resazurin), PC-3; assay type: cell-based, human
[2] = test system: NF-κB; test: NF-κB-mediated luciferase reporter gene assay, HEK293 NF-κB/Luc cells, TNF-α stimulation; assay type: cell-based, human
How it was run: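 Cells seeded at 1.5×10^4/well in phenol-red free DMEM, pretreated 1 h with 8-point half-log compound dilutions (DMSO stocks), then stimulated with TNF-α (10 μl of 50 ng/ml solution) for 6 h. Luciferase read as RLU after 10 min with Steady Lite reagent at room temperature.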

[3] = test system: LeTx-mediated cytotoxicity of RAW 264.7 cells; conditions: read-out: EC50 for inhibition of RAW 264.7 cell cytotoxicity mediated by anthrax lethal toxin; 45 minute preincubation, 1 μg/ml LF and PA, six hours; maximum concentration 330 nM
[4] = test system: U266; test: Cell growth inhibition (resazurin), U266; conditions: for EC50: 48 hours drug exposure
[5] = test system: HT-29; test: Cell growth inhibition (resazurin), HT-29
[6] = test system: OVCAR-3; test: Cell growth inhibition (resazurin), OVCAR-3; conditions: from EC50 values
[7] = test system: B16-F10; test: Cell growth inhibition (resazurin), B16-F10
[8] = test system: NCI-H292; test: Cell growth inhibition (resazurin), NCI-H292
[9] = test system: RPMI 8226; test: Cell growth inhibition (resazurin), RPMI 8226; conditions: for EC50: 48 hours drug exposure
[10] = test system: MDA-MB-231; test: Cell growth inhibition (resazurin), MDA-MB-231
[11] = molecular target: T1, caspase-like activity of purified rabbit muscle 20S proteasome (Oryctolagus cuniculus, UniProt A0A5F9DQW2); test: In vitro inhibition of 20S proteasome caspase-like activity (Z-LLE-AMC)
T1 sequence (A0A5F9DQW2 1-212): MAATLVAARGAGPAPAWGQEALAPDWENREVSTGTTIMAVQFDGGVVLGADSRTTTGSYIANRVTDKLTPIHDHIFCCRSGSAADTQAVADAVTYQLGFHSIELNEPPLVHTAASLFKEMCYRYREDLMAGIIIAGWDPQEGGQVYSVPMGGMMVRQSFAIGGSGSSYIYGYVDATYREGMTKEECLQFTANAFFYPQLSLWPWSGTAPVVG

[12] = molecular target: T2, trypsin-like activity of purified rabbit muscle 20S proteasome (Oryctolagus cuniculus, UniProt G1SWK8); test: In vitro inhibition of 20S proteasome trypsin-like activity (Boc-LRR-AMC); conditions: under the conditions tested
T2 sequence (G1SWK8 1-271): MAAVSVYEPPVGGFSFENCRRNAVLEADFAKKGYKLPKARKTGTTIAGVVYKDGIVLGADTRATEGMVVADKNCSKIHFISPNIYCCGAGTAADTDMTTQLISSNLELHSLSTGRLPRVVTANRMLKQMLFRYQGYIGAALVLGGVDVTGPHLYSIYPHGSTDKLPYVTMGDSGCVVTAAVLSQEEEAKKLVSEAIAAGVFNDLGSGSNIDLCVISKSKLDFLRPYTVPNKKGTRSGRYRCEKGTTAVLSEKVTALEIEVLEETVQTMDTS

[13] = molecular target: T3, chymotrypsin-like activity of purified rabbit muscle 20S proteasome (Oryctolagus cuniculus, UniProt G1T4Q9); test: In vitro inhibition of 20S proteasome chymotrypsin-like activity (suc-LLVY-AMC); conditions: EC50 Chymotrypsin-like, Table 6, values in nM
T3 sequence (G1T4Q9 1-263): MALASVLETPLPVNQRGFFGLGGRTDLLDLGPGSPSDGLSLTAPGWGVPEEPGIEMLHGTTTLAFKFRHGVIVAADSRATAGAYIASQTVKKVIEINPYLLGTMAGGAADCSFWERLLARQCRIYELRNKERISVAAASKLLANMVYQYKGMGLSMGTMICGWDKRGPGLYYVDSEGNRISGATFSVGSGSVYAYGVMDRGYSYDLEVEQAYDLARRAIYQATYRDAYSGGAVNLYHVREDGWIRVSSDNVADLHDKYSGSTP

[14] = molecular target: T4, chymotrypsin-like activity of 20S proteasomes in RPMI 8226 cells (Homo sapiens, UniProt P28074); test: Chymotrypsin-like activity of 20S proteasomes in lysates of treated RPMI 8226 cells; assay type: cell-based
T4 construct: added to 2.5×10^5/ml RMPI 8226 cells; endogenous in cells; host or cells: RPMI 8226 (ATCC CCL-155)
T4 sequence (P28074 60-263): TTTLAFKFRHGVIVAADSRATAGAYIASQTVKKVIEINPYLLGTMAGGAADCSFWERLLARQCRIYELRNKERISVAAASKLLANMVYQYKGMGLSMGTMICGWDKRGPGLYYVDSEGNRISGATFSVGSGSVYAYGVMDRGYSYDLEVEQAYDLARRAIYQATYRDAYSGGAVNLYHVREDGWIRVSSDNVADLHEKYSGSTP
Protocol: RPMI 8226 (ATCC, CCL-155), the human multiple myeloma cell line, was cultured in RPMI 1640 medium supplemented with 2 mM L-glutamine, 100 units/ml penicillin, 100 μg/ml streptomycin, 1 mM sodium pyruvate and 10% heat inactivated fetal bovine serum at 37° C., 5% CO2 and 95% humidified air. […] DMSO was used as the vehicle control at a final concentration of 0.1%. Following 1 hr incubation of RMPI 8226 cells with the compounds, the cells were pelleted by centrifugation at 2,000 rpm for 10 sec at room temperature and washed 3× with ice-cold 1× Dulbecco's Phosphate-Buffered Saline (DPBS, Mediatech, Herndon, Va.). DPBS washed cells were lysed on ice for 15 min in lysis buffer (20 mM HEPES, 0.5 mM EDTA, 0.05% Triton X-100, pH 7.3) supplemented with protease inhibitor cocktail (Roche Diagnostics, Indianapolis, Ind.). Cell debris was pelleted by centrifugation at 14,000 rpm for 10 min, 4° C. and supernatants (=cell lysates) were transferred to a new tube. Protein concentration was determined by the BCA protein assay kit (Pierce Biotechnology, Rockford, Ill.). […] The released coumarin (AMC) was measured fluorometrically by using λex=390 nm and λem=460 nm. The assay was performed in a microtiter plate (Corning 3904) and followed kinetically with measurements every five minutes for 2 hr. The total amount of protein used for each assay was 20 μg. The final concentration of Suc-LLVY-AMC and DMSO was 20 μM and 0.2%, respectively.

[15] = molecular target: T5, chymotrypsin-like activity of 20S proteasomes in PC-3 cells (Homo sapiens, UniProt P28074); test: Chymotrypsin-like activity of 20S proteasomes in lysates of treated PC-3 cells; assay type: cell-based; conditions: for % inhibition of the chymotrypsin-like activity of 20S proteasomes in PC-3 cell lysates: 1 hr incubation
T5 construct: endogenous in cells; host or cells: PC-3 (ATCC CRL-1435)
Protocol: PC-3 (ATCC, CRL-1435), the human prostate cancer cell line, was cultured in F12K medium supplemented with 2 mM L-glutamine, 100 units/ml penicillin, 100 μg/ml streptomycin and 10% heat inactivated fetal bovine serum at 37° C., 5% CO2 and 95% humidified air. […] DMSO was used as the vehicle control at a final concentration of 0.1%. Following 1 hr incubation of PC-3 cells with the compounds, the cells were washed 3× with ice-cold 1× Dulbecco's Phosphate-Buffered Saline (DPBS, Mediatech, Herndon, Va.). […] Cell debris was pelleted by centrifugation at 14,000 rpm for 10 min, 4° C. and supernatants (=cell lysates) were transferred to a new tube. Protein concentration was determined by the BCA protein assay kit (Pierce Biotechnology, Rockford, Ill.). […] The released coumarin (AMC) was measured fluorometrically by using λex=390 nm and λem=460 nm. The assay was performed in a microtiter plate (Corning 3904) and followed kinetically with measurements every five minutes for 2 hr. The total amount of protein used for each assay was 20 μg. The final concentration of Suc-LLVY-AMC and DMSO was 20 μM and 0.2%, respectively. Results are presented as the percent inhibition of the 20S proteasome chymotrypsin-like activity relative to the DMSO control.

[16] = test system: RPMI 8226; test: cells; conditions: for EC50: Homo sapiens
Protocol: RPMI 8226 (CCL-155), HT-29 (HTB-38), and B16-F10 (CRL-6475) cells were purchased from ATCC. RPMI 8226 cells were maintained in RPMI 1640 media supplemented with 10% (v/v) FBS, 2 mM L-glutamine, 1 mM sodium pyruvate and Penicillin/Streptomycin at 100 IU/ml and 100 μg/ml, respectively. HT-29 cells were maintained in McCoys 5A supplemented with 10% (v/v) FBS, 2 mM L-glutamine, 1 mM sodium pyruvate, 1% (v/v) non-essential amino acids, 10 mM HEPES and Penicillin/Streptomycin at 100 IU/ml and 100 μg/ml, respectively. B16-F10 cells were maintained in DMEM supplemented with 10% (v/v) FBS, 2 mM L-glutamine, 10 mM HEPES and Penicillin/Streptomycin at 100 IU/ml and 100 μg/ml, respectively.
RPMI 8226 cells were seeded at 2×10^4 cells/well in 90 μl RPMI media containing 10% (v/v) FBS or 1% (v/v) FBS into 96 well black-walled, clear-bottom tissue culture plates. […] Formulae II-16, II-17 and Formula II-18 were serially diluted in media containing 1% or 10% FBS and added in triplicate to the test wells. […] The final concentration of Formula II-18 ranged from 2 μM to 630 pM.

[17] = test system: HT-29; test: Growth inhibition of HT-29 in media containing 1% or 10% FBS; assay type: cell-based, human; conditions: for EC50: Homo sapiens, HT-29, read-out: HT-29, EC50 (nM) mean ± SD
[18] = test system: B16-F10; test: Growth inhibition of B16-F10 in media containing 1% or 10% FBS; assay type: cell-based, mouse
[19] = RPMI-8226, read-out: % inhibition of the chymotrypsin-like activity of 20S proteasomes in RPMI 8226 cell lysates
[20] = PC-3, read-out: % inhibition of the chymotrypsin-like activity of 20S proteasomes in PC-3 cell lysates

C[C@@]12OC(=O)[C@]1([C@@H](O)[C@H]1CCCC3OC31)NC(=O)[C@@H]2CCCl (single isomer, unassigned) [Formula II-5B]
EC50 ([1]; Table 1, 48 hours drug exposure, mean ± SD where n≥3, read-out: EC50 against PC-3): 1.33 µM | cytotoxicity against PC-3, in words ([1]; from EC50 values): cytotoxic | effect on luciferase activity upon TNF-α stimulation, in words ([2]; pretreatment of NF-κB/Luc 293 cells): dose-dependent decrease | EC50 ([2]; read-out: EC50, NF-κB-mediated luciferase reporter gene assay, Table 5, values in nM, 1 hr pretreatment, TNF-α 6 hr): 279 nM | EC50 [3]: 0.045 µM | cytotoxicity against U266, in words ([4]; from EC50 values): cytotoxic | EC50 ([4]; read-out: EC50 against U266, Table 1): 0.111 µM | EC50 ([4]; read-out: U266 EC50, Table 2): 0.118 µM and 0.111 µM | cytotoxicity against HT-29, in words ([5]; from EC50 values): cytotoxic | EC50 ([5]; read-out: EC50 against HT-29, Table 1, 48 hours drug exposure, mean ± SD where n≥3): 1.21 µM | cytotoxicity against OVCAR-3, in words [6]: cytotoxic | cytotoxicity against B16-F10, in words ([7]; from EC50 values): cytotoxic | EC50 ([7]; read-out: EC50 against B16-F10, Table 1, 48 hours drug exposure, mean ± SD where n≥3): 1.14 µM | cytotoxicity against NCI-H292, in words ([8]; from EC50 values): cytotoxic | EC50 ([8]; read-out: EC50 against NCI-H292, Table 1, 48 hours drug exposure, mean ± SD where n≥3): 1.25 µM | cytotoxicity against RPMI 8226, in words ([9]; from EC50 values): cytotoxic | EC50 ([9]; read-out: EC50 against RPMI 8226, Table 1): 0.328 µM | EC50 ([9]; read-out: RPMI 8226 EC50, Table 2, mean ± SD where n≥3): 0.326 µM and 0.328 µM | cytotoxicity against MDA-MB-231, in words ([10]; from EC50 values): cytotoxic | EC50 ([10]; read-out: EC50 against MDA-MB-231, Table 1, 48 hours drug exposure, mean ± SD where n≥3): 0.957 µM | EC50 ([11]; EC50 Caspase-like, Table 6, values in μM): 3.8 µM and 2.9 µM | EC50 ([11]; EC50 values, caspase-like activity, range in mixed units, summary of Table 6, range from nM to μM): 0.956 to 8.7 µM | inhibition of the trypsin-like activity of the 20S proteasome, in words [12]: able to inhibit | EC50 [13]: 85 nM

C[C@@]12OC(=O)[C@]1([C@@H](O)[C@@H]1C=CCCC1)NC(=O)[C@@H]2CCCl [Formula II-16]
EC50 ([2]; Homo sapiens, HEK293, Table 12, read-out: NF-κB EC50): 11 ± 3 nM | % inhibition of the chymotrypsin-like activity of 20S proteasomes in RPMI 8226 cell lysates ([14]; 100 nM, 1 hr incubation, mean ± SD, n = 3, 0.1 µM): completely inhibit | inhibition at 0.001 µM [14, 19]: 30 ± 7% | inhibition at 0.005 µM [14, 19]: 85 ± 7% | inhibition at 0.01 µM [14, 19]: 94 ± 3% | inhibition at 0.05 µM [14, 19]: 97% | inhibition at 0.1 µM [14, 19]: 98 ± 1% | % inhibition of the chymotrypsin-like activity of 20S proteasomes in PC-3 cell lysates ([15]; 5 nM): 69% | % inhibition of the chymotrypsin-like activity of 20S proteasomes in PC-3 cell lysates ([15]; 50 nM, 0.05 µM): completely inhibit | inhibition at 0.005 µM [15, 20]: 69% | inhibition at 0.05 µM [15, 20]: 98% | cytotoxicity against RPMI 8226 in media containing 1% or 10% FBS, in words ([16]; 1% or 10% FBS): cytotoxic | EC50 ([16]; RPMI-8226, read-out: 1% FBS, EC50, RPMI 8226, media containing 1% FBS, single experiments): 0.0062 µM | EC50 ([16]; RPMI-8226, read-out: 10% FBS, EC50, RPMI 8226, media containing 10% FBS, single experiments): 0.012 µM | EC50 ([16]; RPMI-8226, read-out: Mean 10% FBS, EC50, RPMI 8226, media containing 10% FBS, mean): 0.011 µM | cytotoxicity against HT-29 in media containing 1% or 10% FBS, in words ([17]; 1% or 10% FBS): cytotoxic | EC50 ([17]; media containing 1% FBS): 16 ± 5 nM | EC50 ([17]; media containing 10% FBS): 23 ± 10 nM | cytotoxicity against B16-F10 in media containing 1% or 10% FBS, in words ([18]; 1% or 10% FBS): cytotoxic | EC50 ([18]; Mus musculus, B16-F10, read-out: B16-F10, EC50 (nM) mean ± SD, media containing 1% FBS): 18 ± 9 nM

Source: US7544814B2, “[3.2.0] Heterocyclic compounds and methods of using the same” (Nereus Pharmaceuticals, Inc., priority 2004, dated 2009)
